Reference: patent US12448388B2, “PRMT5 inhibitors and uses thereof” (Gilead Sciences, Inc., priority 2023, dated 2025)
Like-named read-outs stand apart in the source and are kept apart here.

Test system: HCT116 MTAP-deleted cell lines
Experiment: Cell viability assay (CellTiter-Glo, 7 days), HCT116 MTAP-deleted
Type: cell-based
Conditions: Homo sapiens, HCT-116, HCT116 MTAP-deleted, class symbols, read-out: CC50
Procedure, shortened: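 PRMT5 inhibitors were serially diluted in DMSO and acoustically spotted as dose-response series into plates before cell seeding. Cells were grown with compound for 7 days at 37 °C, 5% CO2, 90% humidity, then viability was read by CellTiter-Glo luminescence and reported as CC50.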

Row | Compound | CC50 (cell viability) [nM] | CC50 (cell viability assay) [nM]
1 | Cn1ccc(N(Cc2ccc(C(F)(F)F)cn2)C(=O)c2cc3c(cc2F)nc(N)c2cncn23)n1 [Ff-306, 4-amino-7-fluoro-N-(1-methyl-1H-pyrazol-3-yl)-N-((5-(trifluoromethyl)pyridin-2-yl)methyl)imidazo[1,5-a]quinoxaline-8-carboxamide] | < 100 | –
2 | Nc1nc2ccc(C(=O)N3CCC[C@@H]4Oc5cc(OC(F)(F)F)ccc5[C@@H]43)cc2n2cncc12 [Ff-383, (4-aminoimidazo[1,5-a]quinoxalin-8-yl)((4aS,9bS)-7-(trifluoromethoxy)-3,4,4a,9b-tetrahydrobenzofuro[3,2-b]pyridin-1(2H)-yl)methanone] | – | < 100
3 | Nc1nc2cc(F)c(C(=O)N3CCO[C@@H]4Cc5cc(Cl)ccc5[C@@H]43)cc2n2cncc12 [Ff-461, (4-amino-7-fluoroimidazo[1,5-a]quinoxalin-8-yl)((4aS,9aR)-7-chloro-2,3,9,9a-tetrahydroindeno[2,1-b][1,4]oxazin-4(4aH)-yl)methanone] | – | < 100
4 | CN(C(=O)c1cc2c(cc1F)nc(N)c1cncn12)C1CCc2sccc21 (stereo not shown) [Ff-426, 4-amino-N-(5,6-dihydro-4H-cyclopenta[b]thiophen-4-yl)-7-fluoro-N-methyl-imidazo[1,5-a]quinoxaline-8-carboxamide] | – | 100 to 1000
5 | CN(C(=O)c1cc2c(cc1F)nc(N)c1cncn12)[C@@H]1COc2cc(OC(F)F)ccc21 (single isomer, unassigned) [Ff-559] | – | < 100
6 | Nc1nc2cc(F)c(C(=O)N3CCO[C@@H]4Cc5nc(C(F)(F)F)ccc5[C@@H]43)cc2n2cncc12 (racemic) [Ff-88, Rac-(4-amino-7-fluoroimidazo[1,5-a]quinoxalin-8-yl)((4aR,9bS)-7-(trifluoromethyl)-2,3,5,9b-tetrahydropyrido[3′,2′:3,4]cyclopenta[1,2-b][1,4]oxazin-1(4aH)-yl)methanone] | 100 to 1000 | –
7 | CN(C(=O)c1cc2c(cc1F)nc(N)c1cncn12)[C@@H]1CCc2cc([C@@H]3C[C@H]3C#N)ccc21 [Ff-434, Trans-4-amino-N-[(1R)-5-(2-cyanocyclopropyl)indan-1-yl]-7-fluoro-N-methyl-imidazo[1,5-a]quinoxaline-8-carboxamide] | – | < 100
8 | C[C@@H]1CN(C(=O)c2cc3c(cc2F)nc(N)c2cncn23)[C@@H](c2cccc(C(F)F)n2)CO1 (single isomer, unassigned) [Ff-668] | – | 100 to 1000
9 | [2H]C([2H])([2H])c1ncn2c1c(N)nc1cc(F)c(C(=O)N(C)[C@@H]3COc4cc(C(F)(F)F)ccc43)cc12 [Ff-497, (S)-4-amino-7-fluoro-N-methyl-3-(methyl-d3)-N-(6-(trifluoromethyl)-2,3-dihydrobenzofuran-3-yl)imidazo[1,5-a]quinoxaline-8-carboxamide] | – | < 100
10 | CCN(C(=O)c1cc2c(cn1)nc(N)c1cncn12)[C@@H]1COc2cc(C(F)(F)F)ccc21 [Ff-604, (S)-4-amino-N-ethyl-N-(6-(trifluoromethyl)-2,3-dihydrobenzofuran-3-yl)imidazo[1,5-a]pyrido[3,4-e]pyrazine-8-carboxamide] | – | < 100
11 | CN(C(=O)c1cc2c(cc1F)nc(N)c1cncn12)[C@@H]1COc2cc(-c3cnc(C(F)F)s3)ccc21 [Ff-233, (S)-4-amino-N-(6-(2-(difluoromethyl)thiazol-5-yl)-2,3-dihydrobenzofuran-3-yl)-7-fluoro-N-methylimidazo[1,5-a]quinoxaline-8-carboxamide] | < 100 | –
12 | CN(C(=O)c1cc2c(cc1F)nc(N)c1cncn12)[C@@H]1COc2c(Br)cccc21 [Ff-455, (S)-4-amino-N-(7-bromo-2,3-dihydrobenzofuran-3-yl)-7-fluoro-N-methylimidazo[1,5-a]quinoxaline-8-carboxamide] | – | 100 to 1000
13 | C[C@H]1CN(C(=O)c2cc3c(cc2F)nc(N)c2cncn23)[C@H]2c3ccc(OC(F)(F)F)c(F)c3C[C@H]2O1 (single isomer, unassigned) [Ff-192] | < 100 | –
